Experimental data from article PMC7377239, “Cardiovascular Effects of Polychlorinated Biphenyls and Their Major Metabolites” (Environmental Health Perspectives, 2020).
Structures can show the parent of a compound that is named as a salt. Where two headings read alike, the source gives them in different places.

Test system: iCell cardiomyocytes (human iPSC-derived cardiomyocytes)
Assay: Intracellular Ca2+ flux / beating parameters in iCell cardiomyocytes (FLIPR tetra), 90 min or 24 h
Format: cell-based
Settings: Homo sapiens, Cardiomyocyte, 0.00 µM = 100.00; for activity at 0.1 µM: 0.10 µM
Procedure: Details on cardiomyocyte cell culture are described in detail elsewhere ([Grimm et al. 2015b]; [Sirenko et al. 2013a]). Briefly, tissue-culture treated 384 well plates were gelatinized with 25μL per well of 0.1% (w/v) gelatin in water for 2 h at 37°C and 5% CO2 . Individual vials of cells were thawed for 4 min in a water bath maintained at 37°C. Thawed cells were resuspended in 10ml plating medium containing 1:500 (vol/vol) penicillin/streptomycin solution at room temperature (RT). Live cell counts for each cell suspension were determined by trypan blue staining and cells were further diluted to provide final cell densities of 2×10^5 viable cells/ml. Thus, 5,000 cells suspended in 25μL media were transferred per well after the gelatin solution had been discarded. Cell culture plates were rested for 30 min at RT before they were incubated for 48 h at 37°C and 5% CO2 . Then, a media exchange with 30μL of fresh maintenance medium containing 1:500 (vol/vol) penicillin/streptomycin solution was performed, and cell media were subsequently changed every 48 h for 12 d. On the experiment day, the medium was completely exchanged with either 25μL (for Ca^2+ flux assay) or 40μL (for imaging) of fresh medium.
Responses of iCell®-cardiomyocytes to drugs and chemicals were evaluated using intracellular Ca^2+ flux measurements ([Grimm et al. 2015b]; [Sirenko et al. 2013b]). For experiments, 20 mM stock solutions of PCBs and PCB metabolites were prepared in DMSO ( 200× ). Chemical working solutions ( 5× ) were prepared using cardiomyocyte maintenance medium and contained 2.5% (vol/vol) DMSO. These chemical master plates were prepared to include all chemicals in concentration–response (0.05, 0.5, 5, 50, and 500μM ). Negative controls included media-only and vehicle control (i.e., 0.5% vol/vol DMSO in cell culture media) wells. Positive assay controls were consistent with previously published reports ([Grimm et al. 2018]) and included TAB ( 50μM ) as a cytotoxic control, and isoproterenol ( 0.1–10μM ), propranolol ( 0.1–5 μM ), cisapride ( 0.01–1μM ), and doxorubicin ( 0.1–5μM ) as chemicals associated with specific effects on beating and ion flux. Each test chemical was screened in triplicate for each concentration.
Experiments started with the addition of 25μL of prewarmed 2× concentrated calcium dye reagent to sample wells containing 25μL maintenance media. Microplates were then acclimated for 2 h at 37°C. Following equilibration, cardiomyocyte sample wells were treated simultaneously by the addition of 12.5μL of prewarmed 5× chemical solution to iCell®-cardiomyocytes using the automated liquid handler in the FLIPR tetra (Molecular Devices). Treated cell cultures were incubated for either 90 min or 24 h. After the conclusion of the treatment period, the Ca^2+ flux was measured for 100 s at a frequency of 8 Hz using the integrated fluorescence plate reader in the FLIPR tetra (Molecular Devices) using an emission wavelength range of λemission=515–575 nm ( λexcitation=470–495 nm ). Additional instrument settings included exposure time per read of 0.05s, a gain of 2000, an excitation intensity of 30%, and an internal temperature of 37°C.
Ca^2+ flux data were processed in R studio (version 1.0.136, with R version 3.3.2; R Development Core Team) as described elsewhere ([Blanchette et al. 2019]; [Burnett et al. 2019]). Calculated quantitative metrics included the means and coefficients of variation (CV) of the peak height, which can be indicative of cytotoxicity, inhibition, or stimulation of beating. Means of peak frequency, an indicator of positive or negative […], and CV of peak spacing, an indicator of irregular beating, were also derived from Ca^2+ flux traces. Finally, the mean ratio of the decay over rise time was calculated. Increases in the decay/rise time ratio are reflective of delayed repolarization and are a measure for QT prolongation. […]

[1] = 1.5 h, read-out: cm.amp.avg.90min
[2] = 1.5 h, read-out: cm.amp.cv.90min
[3] = 1.5 h, read-out: cm.decay.rise.90min
[4] = 1.5 h, read-out: cm.spacing.cv.90min
[5] = 24 h, read-out: cm.amp.avg.24hrs
[6] = 24 h, read-out: cm.amp.cv.24hrs
[7] = 24 h, read-out: cm.decay.rise.24hrs
[8] = 24 h, read-out: cm.spacing.cv.24hrs

## Clc1ccc(-c2ccccc2)cc1 [PCB3]
[1]
  activity at 0.01 µM: 98.5%
  activity at 0.1 µM: 104%
  activity at 1 µM: 99.9%
  activity at 10 µM: 99.5%
  activity at 100 µM: 81.2%
[2]
  activity at 0.01 µM: 109%
  activity at 0.1 µM: 102%
  activity at 1 µM: 123%
  activity at 10 µM: 115%
  activity at 100 µM: 180%
1.5 h, read-out: cm.bpm.90min
  activity at 0.01 µM: 95.3%
  activity at 0.1 µM: 96.5%
  activity at 1 µM: 96.5%
  activity at 10 µM: 103%
  activity at 100 µM: 193%
[3]
  activity at 0.01 µM: 98.9%
  activity at 0.1 µM: 99.5%
  activity at 1 µM: 96.1%
  activity at 10 µM: 98.8%
  activity at 100 µM: 99.9%
[4]
  activity at 0.01 µM: 124%
  activity at 0.1 µM: 116%
  activity at 1 µM: 130%
  activity at 10 µM: 121%
  activity at 100 µM: 133%
[5]
  activity at 0.01 µM: 91.3%
  activity at 0.1 µM: 87.1%
  activity at 1 µM: 87.1%
  activity at 10 µM: 110%
  activity at 100 µM: 0%
[6]
  activity at 0.01 µM: 119%
  activity at 0.1 µM: 41.5%
  activity at 1 µM: 146%
  activity at 10 µM: 106%
  activity at 100 µM: 0%
24 h, read-out: cm.bpm.24hrs
  activity at 0.01 µM: 103%
  activity at 0.1 µM: 52.5%
  activity at 1 µM: 103%
  activity at 10 µM: 110%
  activity at 100 µM: 0%
[7]
  activity at 0.01 µM: 98.3%
  activity at 0.1 µM: 47.1%
  activity at 1 µM: 104%
  activity at 10 µM: 98.5%
  activity at 100 µM: 0%
[8]
  activity at 0.01 µM: 138%
  activity at 0.1 µM: 61.2%
  activity at 1 µM: 118%
  activity at 10 µM: 128%
  activity at 100 µM: 0%

## O=S(=O)(O)Oc1cc(-c2ccccc2)ccc1Cl [3-yl PCB 3 sulfate]
[1]
  activity at 0.01 µM: 95.2%
  activity at 0.1 µM: 102%
  activity at 1 µM: 96.9%
  activity at 10 µM: 97.3%
  activity at 100 µM: 113%
[2]
  activity at 0.01 µM: 101%
  activity at 0.1 µM: 103%
  activity at 1 µM: 94.9%
  activity at 10 µM: 107%
  activity at 100 µM: 90.5%
1.5 h, read-out: cm.bpm.90min
  activity at 0.01 µM: 96.5%
  activity at 0.1 µM: 97.8%
  activity at 1 µM: 99.1%
  activity at 10 µM: 96.5%
  activity at 100 µM: 99.1%
[3]
  activity at 0.01 µM: 101%
  activity at 0.1 µM: 105%
  activity at 1 µM: 97.7%
  activity at 10 µM: 96.9%
  activity at 100 µM: 95.6%
[4]
  activity at 0.01 µM: 112%
  activity at 0.1 µM: 107%
  activity at 1 µM: 102%
  activity at 10 µM: 101%
  activity at 100 µM: 92.1%
[5]
  activity at 0.01 µM: 58.6%
  activity at 0.1 µM: 51.9%
  activity at 1 µM: 26.2%
  activity at 10 µM: 79.1%
  activity at 100 µM: 97.7%
[6]
  activity at 0.01 µM: 42.1%
  activity at 0.1 µM: 31.8%
  activity at 1 µM: 69.1%
  activity at 10 µM: 146%
  activity at 100 µM: 77.4%
24 h, read-out: cm.bpm.24hrs
  activity at 0.01 µM: 49.6%
  activity at 0.1 µM: 47.7%
  activity at 1 µM: 46.8%
  activity at 10 µM: 94.5%
  activity at 100 µM: 85%
[7]
  activity at 0.01 µM: 54.9%
  activity at 0.1 µM: 58%
  activity at 1 µM: 51.2%
  activity at 10 µM: 96.3%
  activity at 100 µM: 116%
[8]
  activity at 0.01 µM: 62.7%
  activity at 0.1 µM: 42.3%
  activity at 1 µM: 53.3%
  activity at 10 µM: 96.4%
  activity at 100 µM: 85.3%
